Patent publication EP4714953A1, “MELANOCORTIN 2-TYPE RECEPTOR ANTAGONIST” (Scohia Pharma, Inc., priority 2023, dated 2024)

biological target: T1, human MC2R (Homo sapiens, UniProt Q01718); assay: Measurement of human MC2R inhibitory activity using intracellular cAMP concentration as an indicator; format: cell-based; conditions: test compound at 1 µM; GeneBLAzer MC2R-CRE-bla CHO-K1 cells; ACTH (Human 1-24) final concentration 3 pM; intracellular cAMP by HTRF; read-out: MC2R inhibition rate (% of inhibition)
T1 construct: host or cells: GeneBLAzer MC2R-CRE-bla CHO-K1 cells
T1 sequence (Q01718 whole entry): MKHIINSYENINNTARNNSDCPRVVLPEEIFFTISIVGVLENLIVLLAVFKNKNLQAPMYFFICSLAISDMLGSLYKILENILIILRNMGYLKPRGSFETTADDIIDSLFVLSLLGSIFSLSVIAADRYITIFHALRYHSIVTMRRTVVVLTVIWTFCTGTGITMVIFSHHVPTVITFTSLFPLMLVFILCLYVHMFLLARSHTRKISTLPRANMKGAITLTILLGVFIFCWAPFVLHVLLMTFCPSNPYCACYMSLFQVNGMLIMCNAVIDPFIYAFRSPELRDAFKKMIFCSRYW
T1 sequence (Q8TCY5 whole entry partner): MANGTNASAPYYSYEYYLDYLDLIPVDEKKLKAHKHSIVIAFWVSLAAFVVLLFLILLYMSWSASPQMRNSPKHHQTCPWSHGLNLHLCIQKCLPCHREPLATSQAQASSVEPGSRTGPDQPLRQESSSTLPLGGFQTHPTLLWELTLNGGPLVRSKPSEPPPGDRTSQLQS
Method: Experimental Example 1: Measurement of human MC2R inhibitory activity using intracellular cAMP concentration as an indicator
GeneBLAzer MC2R-CRE-bla CHO-K1 cells (Thermo Fisher Scientific) that had been cryopreserved in advance were thawed and suspended in a medium [Dulbecco's Modified Eagle Medium (Thermo Fisher Scientific) containing fetal bovine serum (10% (v/v), HyClone Laboratories), Non-Essential Amino Acids Solution (1/100 (w/w), Thermo Fisher Scientific), HEPES (25 mM, Thermo Fisher Scientific), Penicillin/Streptomycin (1/100 (w/w), Fujifilm Wako)]. After centrifuging the cell suspension, the supernatant was removed, the cells were suspended in D-PBS(-) (Fujifilm Wako), and the supernatant was removed again after centrifugation. The cells were resuspended in an assay buffer [Hank's Balanced Salt Solution (Thermo Fisher Scientific) containing HEPES pH 7.5 (10 mM, Thermo Fisher Scientific), fatty acid-free bovine serum albumin (0.01% (w/v), Sigma), IBMX (500 µM, Fujifilm Wako)] and added to a 384-well white plate (Greiner) at 1,500 cells/well. Then, the test compound prepared using the assay buffer was added, and after standing for 20 min, an assay buffer containing ACTH (Human 1-24) (Peptide Institute) was added (ACTH final concentration, 3 pM). After standing at room temperature for 30 min, the intracellular cAMP level was measured using cAMP Gs HiRange kit HTRF (PerkinElmer). The inhibition rate (%) of the compound against MC2R was calculated using the following formula. Inhibition rate (%) = […] [formula] • A: cAMP concentration calculated from wells containing 3 pM ACTH (1-24) • B: cAMP concentration calculated from wells without addition of 3 pM ACTH (1-24) • C: cAMP concentration calculated from wells containing 3 pM ACTH (1-24) and test compound at concentration determined in advance

Inhibition at 1 µM, 100%:
CCOc1ncccc1-c1ccc(N2C[C@H]3CN(c4ccc(Cl)cc4C(F)(F)F)C(=O)N3C[C@H]2CC)c(C(=O)N[C@H](C)C(=O)NC)n1 [Example 40, 3-[(6R,8aS)-2-[4-chloro-2-(trifluoromethyl)phenyl]-6-ethyl-3-oxo-5,6,8,8a-tetrahydro-1H-imidazo[1,5-a]pyrazin-7-yl]-6-(2-ethoxypyridin-3-yl)-N-[(2R)-1-(methylamino)-1-oxopropan-2-yl]pyridine-2-carboxamide]
CCOc1ncccc1-c1ccc(N2C[C@H]3CN(c4ccc(Cl)cc4C(F)(F)F)C(=O)N3C[C@H]2CC)c(C(=O)N[C@@H](C)C(=O)NC)n1 [Example 41, 3-[(6R,8aS)-2-[4-chloro-2-(trifluoromethyl)phenyl]-6-ethyl-3-oxo-5,6,8,8a-tetrahydro-1H-imidazo[1,5-a]pyrazin-7-yl]-6-(2-ethoxypyridin-3-yl)-N-[(2S)-1-(methylamino)-1-oxopropan-2-yl]pyridine-2-carboxamide]
CCOc1ncccc1-c1ccc(N2C[C@H]3CN(c4ccc(Cl)cc4C(F)(F)F)C(=O)N3C[C@H]2CC)c(C(=O)NC2CC(=O)N(C)C2)n1 (stereo partly drawn) [Example 42, 3-[(6R,8aS)-2-[4-chloro-2-(trifluoromethyl)phenyl]-6-ethyl-3-oxo-5,6,8,8a-tetrahydro-1H-imidazo[1,5-a]pyrazin-7-yl]-6-(2-ethoxypyridin-3-yl)-N-(1-methyl-5-oxopyrrolidin-3-yl)pyridine-2-carboxamide]
CCOc1ncccc1-c1ccc(N2C[C@H]3CN(c4ccc(Cl)cc4C(F)(F)F)C(=O)N3C[C@H]2CC)c(C(=O)NC[C@H]2CCN2C(=O)OC(C)(C)C)n1 [Example 43, tert-butyl (2R)-2-[[[3-[(6R,8aS)-2-[4-chloro-2-(trifluoromethyl)phenyl]-6-ethyl-3-oxo-5,6,8,8a-tetrahydro-1H-imidazo[1,5-a]pyrazin-7-yl]-6-(2-ethoxypyridin-3-yl)pyridine-2-carbonyl]amino]methyl]azetidine-1-carboxylate]
CCOc1ncccc1-c1ccc(N2C[C@H]3CN(c4ccc(Cl)cc4C(F)(F)F)C(=O)N3C[C@H]2CC)c(C(=O)NC[C@H]2CCN2)n1 [Example 44, 3-[(6R,8aS)-2-[4-chloro-2-(trifluoromethyl)phenyl]-6-ethyl-3-oxo-5,6,8,8a-tetrahydro-1H-imidazo[1,5-a]pyrazin-7-yl]-N-[[(2R)-azetidin-2-yl]methyl]-6-(2-ethoxypyridin-3-yl)pyridine-2-carboxamide]
CCOc1ncccc1-c1ccc(N2C[C@H]3CN(c4ccc(Cl)cc4C(F)(F)F)C(=O)N3C[C@H]2CC)c(C(=O)NC[C@@H]2CCN2C(=O)OC(C)(C)C)n1 [Example 45, tert-butyl (2S)-2-[[[3-[(6R,8aS)-2-[4-chloro-2-(trifluoromethyl)phenyl]-6-ethyl-3-oxo-5,6,8,8a-tetrahydro-1H-imidazo[1,5-a]pyrazin-7-yl]-6-(2-ethoxypyridin-3-yl)pyridine-2-carbonyl]amino]methyl]azetidine-1-carboxylate]
CCOc1ncccc1-c1ccc(N2C[C@H]3CN(c4ccc(Cl)cc4C(F)(F)F)C(=O)N3C[C@H]2CC)c(C(=O)NC[C@@H]2CCN2)n1 [Example 46, 3-[(6R,8aS)-2-[4-chloro-2-(trifluoromethyl)phenyl]-6-ethyl-3-oxo-5,6,8,8a-tetrahydro-1H-imidazo[1,5-a]pyrazin-7-yl]-N-[[(2S)-azetidin-2-yl]methyl]-6-(2-ethoxypyridin-3-yl)pyridine-2-carboxamide]
CCOc1ncccc1-c1ccc(N2C[C@H]3CN(c4ccc(Cl)cc4C(F)(F)F)C(=O)N3C[C@H]2CC)c(C(=O)N[C@H]2CCNC2=O)n1 [Example 48, 3-[(6R,8aS)-2-[4-chloro-2-(trifluoromethyl)phenyl]-6-ethyl-3-oxo-5,6,8,8a-tetrahydro-1H-imidazo[1,5-a]pyrazin-7-yl]-6-(2-ethoxypyridin-3-yl)-N-[(3S)-2-oxopyrrolidin-3-yl]pyridine-2-carboxamide]
CCOc1ncccc1-c1ccc(N2C[C@H]3CN(c4ccc(Cl)cc4C(F)(F)F)C(=O)N3C[C@H]2CC)c(C(=O)N[C@H]2CC(=O)N(C)C2)n1 [Example 50, 3-[(6R,8aS)-2-[4-chloro-2-(trifluoromethyl)phenyl]-6-ethyl-3-oxo-5,6,8,8a-tetrahydro-1H-imidazo[1,5-a]pyrazin-7-yl]-6-(2-ethoxypyridin-3-yl)-N-[(3S)-1-methyl-5-oxopyrrolidin-3-yl]pyridine-2-carboxamide]
CCOc1ncccc1-c1ccc(N2C[C@H]3CN(c4ccc(F)cc4C(F)(F)F)C(=O)N3C[C@H]2CC)c(C(=O)N[C@H]2CNC(=O)C2)n1 [Example 51, 3-[(6R,8aS)-6-ethyl-2-[4-fluoro-2-(trifluoromethyl)phenyl]-3-oxo-5,6,8,8a-tetrahydro-1H-imidazo[1,5-a]pyrazin-7-yl]-6-(2-ethoxypyridin-3-yl)-N-[(3R)-5-oxopyrrolidin-3-yl]pyridine-2-carboxamide]
CCOc1ncccc1-c1ccc(N2C[C@H]3CN(c4ccc(F)cc4C(F)(F)F)C(=O)N3C[C@H]2CC)c(C(=O)N[C@@H]2CC(=O)N(C)C2)n1 [Example 52, 3-[(6R,8aS)-6-ethyl-2-[4-fluoro-2-(trifluoromethyl)phenyl]-3-oxo-5,6,8,8a-tetrahydro-1H-imidazo[1,5-a]pyrazin-7-yl]-6-(2-ethoxypyridin-3-yl)-N-[(3R)-1-methyl-5-oxopyrrolidin-3-yl]pyridine-2-carboxamide]
CCOc1ncccc1-c1ccc(N2C[C@H]3CN(c4ccc(Cl)cc4C#N)C(=O)N3C[C@H]2CC)c(C(=O)N[C@H]2CNC(=O)C2)n1 [Example 53, 3-[(6R,8aS)-2-(4-chloro-2-cyanophenyl)-6-ethyl-3-oxo-5,6,8,8a-tetrahydro-1H-imidazo[1,5-a]pyrazin-7-yl]-6-(2-ethoxypyridin-3-yl)-N-[(3R)-5-oxopyrrolidin-3-yl]pyridine-2-carboxamide]
CCOc1ncccc1-c1ccc(N2C[C@H]3CN(c4ccc(Cl)cc4C#N)C(=O)N3C[C@H]2CC)c(C(=O)N[C@@H]2CC(=O)N(C)C2)n1 [Example 54, 3-[(6R,8aS)-2-(4-chloro-2-cyanophenyl)-6-ethyl-3-oxo-5,6,8,8a-tetrahydro-1H-imidazo[1,5-a]pyrazin-7-yl]-6-(2-ethoxypyridin-3-yl)-N-[(3R)-1-methyl-5-oxopyrrolidin-3-yl]pyridine-2-carboxamide]
CCOc1ncccc1-c1ccc(N2C[C@H]3CN(c4ccc(F)cc4C#N)C(=O)N3C[C@H]2CC)c(C(=O)N[C@H]2CNC(=O)C2)n1 [Example 55, 3-[(6R,8aS)-2-(2-cyano-4-fluorophenyl)-6-ethyl-3-oxo-5,6,8,8a-tetrahydro-1H-imidazo[1,5-a]pyrazin-7-yl]-6-(2-ethoxypyridin-3-yl)-N-[(3R)-5-oxopyrrolidin-3-yl]pyridine-2-carboxamide]
